Experimental data as given in patent US20240199546A1, “INHIBITORS OF SOLUTE CARRIER FAMILY 6A MEMBER 19 (SLC6A19) AND METHODS OF USE THEREOF” (Maze Therapeutics, Inc., priority 2022, published 2024).

Legend:
[1] = molecular target: T1, human SLC6A19 and TMEM27 (Homo sapiens, UniProt Q695T7); test: Radiolabelled (3H) leucine uptake in CHO cells with doxycycline-inducible expression of human SLC6A19 and TMEM27 (Example B-1); format: cell-based; conditions: CHO cells with doxycycline-inducible expression of human SLC6A19 and TMEM27, read-out: SLC6A19_Radioligand Uptake Assay IC50
T1 construct: expressed in transfected cells
T1 sequence (Q695T7 1-634): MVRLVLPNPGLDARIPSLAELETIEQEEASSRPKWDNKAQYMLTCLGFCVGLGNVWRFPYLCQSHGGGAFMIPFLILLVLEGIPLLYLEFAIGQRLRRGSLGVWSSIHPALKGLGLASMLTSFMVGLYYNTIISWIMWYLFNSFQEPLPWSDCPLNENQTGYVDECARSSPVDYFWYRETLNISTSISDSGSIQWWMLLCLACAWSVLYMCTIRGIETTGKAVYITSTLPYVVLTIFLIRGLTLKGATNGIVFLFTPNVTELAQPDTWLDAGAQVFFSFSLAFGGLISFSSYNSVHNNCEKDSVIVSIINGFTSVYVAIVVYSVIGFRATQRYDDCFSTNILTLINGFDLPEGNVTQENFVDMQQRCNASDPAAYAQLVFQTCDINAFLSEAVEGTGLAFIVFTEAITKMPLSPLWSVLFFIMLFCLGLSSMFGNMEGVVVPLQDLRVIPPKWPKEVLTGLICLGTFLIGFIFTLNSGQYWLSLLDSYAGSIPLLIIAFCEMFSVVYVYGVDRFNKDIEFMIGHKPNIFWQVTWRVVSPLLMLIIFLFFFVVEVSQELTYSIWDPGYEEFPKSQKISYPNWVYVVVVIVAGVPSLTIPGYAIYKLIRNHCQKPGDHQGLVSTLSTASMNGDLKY
T1 sequence (Q9HBJ8 15-222 partner): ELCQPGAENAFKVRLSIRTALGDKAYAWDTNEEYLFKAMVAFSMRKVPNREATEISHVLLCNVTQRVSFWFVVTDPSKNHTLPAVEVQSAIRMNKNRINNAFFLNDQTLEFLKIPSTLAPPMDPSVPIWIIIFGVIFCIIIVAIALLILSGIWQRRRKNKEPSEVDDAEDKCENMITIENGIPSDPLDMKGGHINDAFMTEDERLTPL
Method in brief: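 CHO cells were induced with doxycycline for 18 h at 37 °C, washed in HBSS, then exposed to compounds for 1 h: 8-point, 3-fold dilutions in duplicate, 0.5% DMSO final. Uptake measured by scintillation counting after 2 h shaking. Activity normalized with positive control as 0% and DMSO as 100%.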

[2] = molecular target: T1, human SLC6A19 and TMEM27; test: 13C6,15N-isoleucine uptake in CHO cells with doxycycline-inducible expression of human SLC6A19 and TMEM27, RapidFire mass spectrometry (Example B-2); format: cell-based; conditions: read-out: SLC6A19_RapidFire Uptake Assay IC50
Method in brief: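 Read-out is RapidFire mass-spec peak area of 13C6,15N-isoleucine taken up over 20 min at 37 °C, after 20 min compound pre-exposure in pH 7.2 HEPES-buffered saline. Cells: doxycycline-induced CHO co-expressing human SLC6A19 and TMEM27; compounds as duplicate 10-point 2-fold dilutions, positive control setting 0% activity.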

Compound	IC50 [1]	IC50 [2]
O=C(NCc1cc2cc(F)c(OCc3ccno3)cc2[nH]1)N1CCC1 [Compound 401, N-((5-fluoro-6-(isoxazol-5-ylmethoxy)-1H-indol-2-yl)methyl)azetidine-1-carboxamide]	342 nM	534 nM
O=C(NCc1cc2cc(Cl)c(OCc3cccc(F)n3)cc2[nH]1)N1CCC1 [Compound 402, N-((5-chloro-6-((6-fluoropyridin-2-yl)methoxy)-1H-indol-2-yl)methyl)azetidine-1-carboxamide]	290 nM	175 nM
O=C(NCc1cc2cc(Cl)c(OCc3cocn3)cc2[nH]1)N1CCC1 [Compound 403, N-((5-chloro-6-(oxazol-4-ylmethoxy)-1H-indol-2-yl)methyl)azetidine-1-carboxamide]	407 nM	519 nM
Cc1cc(COc2cc3[nH]c(CNC(=O)N4CCC4)cc3cc2Cl)on1 [Compound 404, N-((5-chloro-6-((3-methylisoxazol-5-yl)methoxy)-1H-indol-2-yl)methyl)azetidine-1-carboxamide]	268 nM	147 nM
Cn1ncc(COc2cc3[nH]c(CNC(=O)N4CCC4)cc3cc2Cl)n1 [Compound 405, N-((5-chloro-6-((2-methyl-2H-1,2,3-triazol-4-yl)methoxy)-1H-indol-2-yl)methyl)azetidine-1-carboxamide]	305 nM	367 nM
Cn1ncc(COc2cc3[nH]c(CNC(=O)N4CCCC4)cc3cc2Cl)n1 [Compound 406, N-((5-chloro-6-((2-methyl-2H-1,2,3-triazol-4-yl)methoxy)-1H-indol-2-yl)methyl)pyrrolidine-1-carboxamide]	347 nM	172 nM
O=C(NCc1cc2cc(Cl)c(NCc3ccon3)cc2[nH]1)N1CCC1 [Compound 407, N-((5-chloro-6-((isoxazol-3-ylmethyl)amino)-1H-indol-2-yl)methyl)azetidine-1-carboxamide]	619 nM	593 nM
Cc1nc(COc2cc3[nH]c(CNC(=O)N4CCC4)cc3cc2Cl)co1 [Compound 408, N-((5-chloro-6-((2-methyloxazol-4-yl)methoxy)-1H-indol-2-yl)methyl)azetidine-1-carboxamide]	478 nM	498 nM
Cn1ncc(COc2cc3[nH]c(CNC(=O)N4CCC4)cc3cc2F)n1 [Compound 409, N-((5-fluoro-6-((2-methyl-2H-1,2,3-triazol-4-yl)methoxy)-1H-indol-2-yl)methyl)azetidine-1-carboxamide]	1180 nM	2290 nM
Cn1ncc(COc2cc3[nH]c(CNC(=O)N4CCCC4)cc3cc2F)n1 [Compound 410, N-((5-fluoro-6-((2-methyl-2H-1,2,3-triazol-4-yl)methoxy)-1H-indol-2-yl)methyl)pyrrolidine-1-carboxamide]	386 nM	578 nM
Cc1nc(COc2cc3[nH]c(CNC(=O)N4CCCC4)cc3cc2Cl)co1 [Compound 411, N-((5-chloro-6-((2-methyloxazol-4-yl)methoxy)-1H-indol-2-yl)methyl)pyrrolidine-1-carboxamide]	313 nM	217 nM
O=C(NCc1cc2cc(Cl)c(CCc3ccon3)cc2[nH]1)N1CCCC1 [Compound 412, N-((5-chloro-6-(2-(isoxazol-3-yl)ethyl)-1H-indol-2-yl)methyl)pyrrolidine-1-carboxamide]	289 nM	154 nM
O=C(NCc1cc2cc(Cl)c(NCc3ccon3)cc2[nH]1)N1CCCC1 [Compound 413, N-((5-chloro-6-((isoxazol-3-ylmethyl)amino)-1H-indol-2-yl)methyl)pyrrolidine-1-carboxamide]	276 nM	239 nM
O=C(NCc1cc2cc(Cl)c(NCc3cscn3)cc2[nH]1)N1CCCC1 [Compound 414, N-((5-chloro-6-((thiazol-4-ylmethyl)amino)-1H-indol-2-yl)methyl)pyrrolidine-1-carboxamide]	339 nM	281 nM
O=C(NCc1cc2cc(OC(F)(F)F)c(OCc3cscn3)cc2[nH]1)N1CCCC1 [Compound 415, N-((6-(thiazol-4-ylmethoxy)-5-(trifluoromethoxy)-1H-indol-2-yl)methyl)pyrrolidine-1-carboxamide]	384 nM	93.4 nM
O=C(NCc1cc2cc(OC(F)(F)F)c(CCc3cscn3)cc2[nH]1)N1CCCC1 [Compound 419, N-((6-(2-(thiazol-4-yl)ethyl)-5-(trifluoromethoxy)-1H-indol-2-yl)methyl)pyrrolidine-1-carboxamide]	435 nM	159 nM
O=C(NCc1cc2cc(OC(F)(F)F)c(OCc3cscn3)cc2[nH]1)N1CCC1 [Compound 421, N-((6-(thiazol-4-ylmethoxy)-5-(trifluoromethoxy)-1H-indol-2-yl)methyl)azetidine-1-carboxamide]	359 nM	131 nM
CCc1c(CNC(=O)N2CCC2)[nH]c2cc(OCc3cscn3)c(Cl)cc12 [Compound 424, N-((5-chloro-3-ethyl-6-(thiazol-4-ylmethoxy)-1H-indol-2-yl)methyl)azetidine-1-carboxamide]	1260 nM	491 nM
O=C(NCc1cc2cc(Cl)c(OCc3cccc(F)n3)cc2[nH]1)N1CCCC1 [Compound 425, N-((5-chloro-6-((6-fluoropyridin-2-yl)methoxy)-1H-indol-2-yl)methyl)pyrrolidine-1-carboxamide]	315 nM	115 nM
Cc1coc(COc2cc3[nH]c(CNC(=O)N4CCCC4)cc3cc2Cl)n1 [Compound 426, N-((5-chloro-6-((4-methyloxazol-2-yl)methoxy)-1H-indol-2-yl)methyl)pyrrolidine-1-carboxamide]	351 nM	217 nM
O=C(NCc1cc2cc(F)c(OCc3cscn3)cc2[nH]1)C1CCC1 [Compound 430, N-((5-fluoro-6-(thiazol-4-ylmethoxy)-1H-indol-2-yl)methyl)cyclobutanecarboxamide]	137 nM	68.6 nM
O=C(NCc1cc2cc(F)c(OCc3ccon3)cc2[nH]1)C1CCC1 [Compound 431, N-((5-fluoro-6-(isoxazol-3-ylmethoxy)-1H-indol-2-yl)methyl)cyclobutanecarboxamide]	244 nM	343 nM
CC(C)(C)C(=O)NCc1cc2cc(Cl)c(OCc3cscn3)cc2[nH]1 [Compound 432, N-((5-chloro-6-(thiazol-4-ylmethoxy)-1H-indol-2-yl)methyl)pivalamide]	384 nM	253 nM
Cn1ncc(COc2cc3[nH]c(CNC(=O)C4CC4)cc3cc2F)n1 [Compound 433, N-((5-fluoro-6-((2-methyl-2H-1,2,3-triazol-4-yl)methoxy)-1H-indol-2-yl)methyl)cyclopropanecarboxamide]	566 nM	1500 nM
CCC(=O)NCc1cc2cc(Cl)c(OCc3cc(C)no3)cc2[nH]1 [Compound 438, N-((5-chloro-6-((3-methylisoxazol-5-yl)methoxy)-1H-indol-2-yl)methyl)propionamide]	70.9 nM	26.8 nM
CC1(C(=O)NCc2cc3cc(Cl)c(NCc4cscn4)cc3[nH]2)CC1 [Compound 452, N-((5-chloro-6-((thiazol-4-ylmethyl)amino)-1H-indol-2-yl)methyl)-1-methylcyclopropane-1-carboxamide]	145 nM	63.6 nM
CC1(C(=O)NCc2cc3cc(F)c(OCc4ccc5ccoc5c4)cc3[nH]2)CC1 [Compound 460, N-((6-(benzofuran-6-ylmethoxy)-5-fluoro-1H-indol-2-yl)methyl)-1-methylcyclopropane-1-carboxamide]	1360 nM	732 nM
CC1(C(=O)NCc2cc3cc(Cl)c(OCc4ccc5ccoc5c4)cc3[nH]2)CC1 [Compound 461, N-((6-(benzofuran-6-ylmethoxy)-5-chloro-1H-indol-2-yl)methyl)-1-methylcyclopropane-1-carboxamide]	2700 nM	989 nM
O=C(NCc1cc2cc(F)c(NCc3ccon3)cc2[nH]1)N1CCC1 [Compound 470, N-((5-fluoro-6-((isoxazol-3-ylmethyl)amino)-1H-indol-2-yl)methyl)azetidine-1-carboxamide]	1310 nM	1820 nM
